Test results from article PMC8560763, “Roles of metal ions in the selective inhibition of oncogenic variants of isocitrate dehydrogenase 1” (Communications Biology, 2021).
Several values for one entry are separate records, joined by “and”; a condition that tells them apart may be missing. Equal values may be shown once. Values belong to the compound of their own block, whether it stands above or below them.

Experiments:
[1] = target: T1, wt IDH1 (Homo sapiens, UniProt O75874); assay: CPMG-edited 1H NMR ligand binding, wt IDH1; details: for binding to wt IDH1 / displacement of D-isocitrate from wt IDH1: without metal ions; for binding to wt IDH1: DSF and NMR; for weakening of D-isocitrate binding to wt IDH1: with Mg^2+ or Ca^2+ (10 mM); for displacement of D-isocitrate from wt IDH1: inhibitor 50 µM, D-isocitrate 50 µM, wt IDH1 6.25 µM
T1 construct: made in house; host or cells: Escherichia coli BL21(DE3) pLyS
Method: Additional solvent presaturation was applied for 2 s. The assay mixture contains 160 µL of a 50 µM solution of the compound of interest ± 10 mM metal chloride salts in 50 mM Tris-D11-HCl in 90% H2O/10% D2O at pH 7.5. […] Data were processed with the TopSpin 3.1 software.

[2] = target: T1, wt IDH1; assay: Absorbance assay: kinetics of reductive reaction (2OG to isocitrate) by wt IDH1; type: biochemical
Method: (§1) All experiments were performed in (at least) triplicate.
(§2) KM values were determined by varying concentrations of the substrate/cofactor under investigation while maintaining the concentrations of other components using standard conditions. […] Graphs were fitted using GraphPad Prism to obtain kinetic parameters.

[3] = target: T1, wt IDH1; assay: Absorbance assay: effect of metal ions on catalysis and inhibition of wt IDH1; type: biochemical; details: for inhibition by metal ion: wt IDH1, metal ions 10 mM in the presence of 10 mM Mg^2+
[4] = target: T1, wt IDH1; assay: Absorbance assay (NADPH, 340 nm): kinetics of oxidative reaction (isocitrate to 2OG) by wt IDH1; type: biochemical
Method: as §1, §2

[5] = target: T1, wt IDH1; assay: Differential scanning fluorimetry (DSF) thermal shift, wt IDH1; type: binding; details: 50 mM Tris-HCl, pH 7.5; for thermal stabilisation (shift in Tm): wt IDH1, divalent metal ions (5 mM); for thermal stabilisation by cosubstrates: wt IDH1, 0.125—4 mM
Method: Thermal shift experiments were carried out using Sypro Orange dye and a CFX96 Touch^TM Real-Time PCR Detection System (Bio-Rad)[69]. […] The standard assay buffer contains 50 mM Tris-HCl at pH 7.5. Various concentrations of substrates were mixed with IDH1 for thermal stabilisation studies. […] Bio-Rad CFX Manager was used to determine the melting temperature, Tm.

[6] = target: T1, wt IDH1; assay: 1H NMR reaction monitoring, wt IDH1; type: biochemical; details: 1H NMR (700 MHz), NADP+, 10 mM MgCl2
[7] = target: T1, wt IDH1; assay: Non-denaturing protein MS, wt IDH1; type: binding; details: wt IDH1 dimer with two NADPHs bound
Method: Non-denaturing mass spectra were obtained using a quadrupole time-of-flight mass spectrometer (Synapt HD MS, Waters, Wilmslow, Manchester, UK)[71],[72]. […] Protein concentrations were measured using a Nanodrop spectrometer (Thermo Scientific™ NanoDrop™ One). […] The solution was then sprayed through a nozzle in a Nanomate chip at a spray voltage of 1.8–2.0 kV (spray backing gas pressure 0.8–1.0 psi, inlet pressure 3.8 mbar). […] For promoting collision-induced dissociation of the substrate from its complex with IDH1, a higher cone voltage (200 V) was used. The rest of the voltages and pressures in the mass spectrometer were adjusted for the best resolution and minimum fragmentation. Data collection and analysis were carried out using the Waters MassLynx software. Mass spectra were calibrated externally using the CsI solution to produce CsI cluster ions.

[8] = wt IDH1, reductive reaction (2OG to isocitrate) with Mg^2+, 100 mM NaHCO3
[9] = wt IDH1, oxidative reaction with Mn^2+ (10 mM MnCl2)

T1 sequence (O75874 2-414): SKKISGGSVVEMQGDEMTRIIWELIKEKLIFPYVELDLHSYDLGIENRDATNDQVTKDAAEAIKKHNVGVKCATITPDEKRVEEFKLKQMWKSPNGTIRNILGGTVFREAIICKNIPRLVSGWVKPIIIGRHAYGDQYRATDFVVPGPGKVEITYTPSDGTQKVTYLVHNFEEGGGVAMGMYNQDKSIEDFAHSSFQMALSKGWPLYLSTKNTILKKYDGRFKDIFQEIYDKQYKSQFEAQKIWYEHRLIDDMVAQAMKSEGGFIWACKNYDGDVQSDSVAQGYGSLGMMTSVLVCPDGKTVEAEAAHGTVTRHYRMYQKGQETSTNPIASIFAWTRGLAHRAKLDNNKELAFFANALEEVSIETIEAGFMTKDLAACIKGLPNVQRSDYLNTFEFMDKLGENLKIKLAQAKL

- binding to wt IDH1 [1]: not observed to bind
SMILES: O=C(O)CCC(O)C(=O)O (stereo not shown) [2HG, 2-hydroxyglutarate]

- Km [2, 8]: 1100 µM
- Vmax [2, 8]: 200 ± 16 nM/s
- binding to wt IDH1 [1]: bind weakly
SMILES: O=C(O)CCC(=O)C(=O)O [2OG, 2-oxoglutarate]
- Velocity ([2]; Fig. S2e, [2OG] 312.5 μM): 0.04369 µM/s and 0.04159 µM/s and 0.04334 µM/s
- Velocity ([2]; Fig. S2e, [2OG] 625 μM): 0.08493 µM/s and 0.08598 µM/s and 0.07405 µM/s
- Velocity ([2]; Fig. S2e, [2OG] 2500 μM): 0.1446 µM/s and 0.1407 µM/s and 0.1265 µM/s
- Velocity ([2]; Fig. S2e, [2OG] 5000 μM): 0.1734 µM/s and 0.1435 µM/s and 0.1563 µM/s
- Velocity ([2]; Fig. S2e, [2OG] 10000 μM): 0.2051 µM/s and 0.2078 µM/s and 0.1434 µM/s

- effect of metal ion on catalysis ([3]; wt IDH1, metal ions 10 mM): promoted
- thermal stabilisation (shift in Tm) [5]: 2.9 °C
- Velocity ([4]; Fig. S3c, [MnCl2] 12.207 μM): 0.3785 µM/s and 0.3498 µM/s
- Velocity ([4]; Fig. S3c, [MnCl2] 19.5312 μM): 0.3561 µM/s and 0.3846 µM/s
- kcat ([4]; wt IDH1, oxidative reaction with Mn^2+): 81 ± 11 s⁻¹
- Km [4, 9]: 2 ± 0.3 µM
- Vmax [4, 9]: 416 ± 13 nM/s
SMILES: [Cl][Mn][Cl] [MnCl2]
- Velocity ([4]; Fig. S3c, [MnCl2] 1.16415 μM): 0.08423 µM/s and 0.08186 µM/s and 0.1169 µM/s
- Velocity ([4]; Fig. S3c, [MnCl2] 1.86265 μM): 0.2269 µM/s and 0.1979 µM/s and 0.204 µM/s
- Velocity ([4]; Fig. S3c, [MnCl2] 4.76837 μM): 0.3206 µM/s and 0.2772 µM/s and 0.338 µM/s
- Velocity ([4]; Fig. S3c, [MnCl2] 7.62939 μM): 0.3506 µM/s and 0.2861 µM/s and 0.3632 µM/s
- Velocity ([4]; Fig. S3c, [MnCl2] 31.25 μM): 0.3922 µM/s and 0.3424 µM/s and 0.3875 µM/s
- Velocity ([4]; Fig. S3c, [MnCl2] 50 μM): 0.4096 µM/s and 0.3893 µM/s and 0.3938 µM/s

- inhibition by metal ion [3]: inhibiting
- thermal stabilisation (shift in Tm) [5]: 3.2 °C
SMILES: [Ca+2].[Cl-].[Cl-] [Ca^2+, CaCl2]

- inhibition by metal ion [3]: inhibiting
SMILES: [Cl-].[Cl-].[Sr+2] [Sr^2+, SrCl2]

- inhibition by metal ion [3]: no effect
SMILES: [Cl-].[Cs+] [Cs^+]

- inhibition by metal ion [3]: no effect
SMILES: [Na+] [Na^+]

- inhibition by metal ion [3]: inhibitory
SMILES: [Cl-].[Cl-].[Zn+2] [Zn^2+, ZnCl2]

- inhibition by metal ion [3]: no effect
SMILES: [Cl-].[K+] [K^+]

- weakening of D-isocitrate binding to wt IDH1 [1]: not
- displacement of D-isocitrate from wt IDH1 [1]: partially displaced
- binding stoichiometry [7]: two inhibitors per IDH1 dimer
SMILES: COc1c(C)cc(NC(=O)c2nn(Cc3ccc(F)cc3)c3c2CN(C(=O)c2ccc[nH]2)C[C@]3(C)C(N)=O)cc1C [GSK864]

Further lines, the compound ahead of its results:

SMILES: [Cl][Cd][Cl] [Cd^2+, CdCl2]
- inhibition by metal ion [3]: inhibitory

SMILES: [Cl-].[Li+] [Li^+]
- inhibition by metal ion [3]: no effect

SMILES: O=C(O)CC(C(=O)O)C(O)C(=O)O (racemic) [DL-isocitrate]
- Km ([4]; wt IDH1, oxidative reaction with Mg^2+ (10 mM MgCl2)): 38 ± 6 µM
- Km [4, 9]: 35 ± 4 µM

SMILES: O=C(O)CNC(=O)C(=O)O [NOG, N-oxalylglycine]
- binding to wt IDH1 [1]: bind weakly

SMILES: [Cl][Ni][Cl] [Ni^2+, NiCl2]
- inhibition by metal ion [3]: inhibitory

SMILES: NC(=O)C1=CN([C@@H]2O[C@H](COP(=O)(O)OP(=O)(O)OC[C@H]3O[C@@H](n4cnc5c(N)ncnc54)[C@H](OP(=O)(O)O)[C@@H]3O)[C@@H](O)[C@H]2O)C=CC1 [NADPH]
- Velocity ([2]; Fig. S2f, [NADPH] 31.25 μM): 0.06247 µM/s and 0.06738 µM/s and 0.04685 µM/s
- Velocity ([2]; Fig. S2f, [NADPH] 62.5 μM): 0.08774 µM/s and 0.07774 µM/s and 0.04633 µM/s
- Velocity ([2]; Fig. S2f, [NADPH] 250 μM): 0.1446 µM/s and 0.1585 µM/s and 0.1383 µM/s
- Velocity ([2]; Fig. S2f, [NADPH] 500 μM): 0.1648 µM/s and 0.2053 µM/s
- thermal stabilisation by cosubstrates [5]: stabilise

SMILES: O=C(O)C[C@H](C(=O)O)[C@@H](O)C(=O)O [L-isocitrate]
- conversion by wt IDH1 [6]: neither a substrate nor an inhibitor

SMILES: N#Cc1ccnc(N2C(=O)CC[C@H]2C(=O)N(c2cncc(F)c2)[C@H](C(=O)NC2CC(F)(F)C2)c2ccccc2Cl)c1 [AG-120, Ivosidenib]
- weakening of D-isocitrate binding to wt IDH1 [1]: not
- displacement of D-isocitrate from wt IDH1 [1]: partially displaced
- binding stoichiometry [7]: one inhibitor per IDH1 dimer

SMILES: [Cl-].[Cl-].[Co+2] [Co^2+, CoCl2]
- inhibition by metal ion [3]: inhibitory

SMILES: NC(=O)c1ccc[n+](C2OC(COP(=O)(O)OP(=O)([O-])OCC3OC(n4cnc5c(N)ncnc54)C(OP(=O)(O)O)C3O)C(O)C2O)c1 (stereo not shown) [NADP^+]
- thermal stabilisation by cosubstrates [5]: stabilise
- Velocity ([4]; Fig. S2b, [NADP+] 9.375 μM): 0.05756 µM/s and 0.05177 µM/s and 0.06247 µM/s
- Velocity ([4]; Fig. S2b, [NADP+] 18.75 μM): 0.1158 µM/s and 0.09809 µM/s and 0.09195 µM/s
- Velocity ([4]; Fig. S2b, [NADP+] 37.5 μM): 0.1572 µM/s and 0.1441 µM/s and 0.152 µM/s
- Velocity ([4]; Fig. S2b, [NADP+] 75 μM): 0.1869 µM/s and 0.1658 µM/s and 0.2058 µM/s
- Velocity ([4]; Fig. S2b, [NADP+] 150 μM): 0.2085 µM/s and 0.1992 µM/s and 0.219 µM/s
- Velocity ([4]; Fig. S2b, [NADP+] 300 μM): 0.2511 µM/s and 0.2272 µM/s and 0.239 µM/s
- Velocity ([4]; Fig. S2b, [NADP+] 600 μM): 0.245 µM/s and 0.2229 µM/s and 0.192 µM/s
- Velocity ([4]; Fig. S2b, [NADP+] 1200 μM): 0.2522 µM/s and 0.2318 µM/s and 0.2402 µM/s
- Velocity ([4]; Fig. S2b, [NADP+] 2400 μM): 0.2325 µM/s and 0.2464 µM/s and 0.2378 µM/s
- Velocity ([4]; Fig. S3b, MnCl2 as metal, [NADP+] 2.34375 μM): 0.01474 µM/s and 0.01079 µM/s and 0.008423 µM/s
- Velocity ([4]; Fig. S3b, MnCl2 as metal, [NADP+] 4.6875 μM): 0.04185 µM/s and 0.03843 µM/s and 0.02737 µM/s
- Velocity ([4]; Fig. S3b, MnCl2 as metal, [NADP+] 9.375 μM): 0.08765 µM/s and 0.07107 µM/s and 0.0637 µM/s
- Velocity ([4]; Fig. S3b, MnCl2 as metal, [NADP+] 18.75 μM): 0.1629 µM/s and 0.1316 µM/s and 0.1234 µM/s
- Velocity ([4]; Fig. S3b, MnCl2 as metal, [NADP+] 37.5 μM): 0.2419 µM/s and 0.1971 µM/s and 0.1732 µM/s
- Velocity ([4]; Fig. S3b, MnCl2 as metal, [NADP+] 75 μM): 0.3032 µM/s and 0.278 µM/s and 0.2851 µM/s
- Velocity ([4]; Fig. S3b, MnCl2 as metal, [NADP+] 150 μM): 0.3353 µM/s and 0.3245 µM/s and 0.3419 µM/s
- Velocity ([4]; Fig. S3b, MnCl2 as metal, [NADP+] 300 μM): 0.3651 µM/s

SMILES: [Ba+2].[Cl-].[Cl-] [Ba^2+, BaCl2]
- inhibition by metal ion [3]: inhibiting
